Where “and” joins values, the source holds several entries; their conditions need not be identical. Identical values can stand only once.
The compounds below were run on S. Typhimurium PhoP-regulated promoter GFP reporter, 4 h (assay: PhoP-dependent GFP reporter repression – Salmonella Typhimurium, primary screen (AID 1863)).
`CCCCCCCNC(=O)C1(CC2CC(c3cccc(Br)c3)=NO2)CCNCC1` (stereo not given) showed an IC50 of 45.6 µM. Work on `O=C(N/N=C/c1coc2ccc(Cl)cc2c1=O)c1cc(O)cc(O)c1` yielded an IC50 of 69.1 µM. For `CCOC(=O)C1=Nc2ccccc2C1=[N+]=[N-]`, the IC50 was 32.4 µM. Work on `Cc1ccccc1NC(=O)CCC(=O)N/N=C/c1cc([N+](=O)[O-])ccc1O` yielded an IC50 of 95.7 µM. In the case of `CCCCCCCCCCOC(=O)Cn1c(COc2ccc(OC)cc2)[n+](C)c2ccccc21`, the IC50 is reported as 22.9 µM and 22.5 µM. `COc1c(N2CCN(C(=S)Nc3ccccc3F)C(C)C2)c(F)cc2c(=O)c(C(=O)O)cn(C3CC3)c12` (stereo not given) showed an IC50 of 5.43 µM. In the case of `CCCCCCCOC(=O)C[N+](C)(C)CCOC1CC2CCC1(C)C2(C)C` (stereo not given), the IC50 is reported as 25.3 µM. `COc1cccc(Nc2nc(NCC3CCCO3)c3ccccc3n2)c1` (stereo not given) showed an IC50 of 82 µM. `CCN(CC)CCOc1ccc2c(c1)C(=NNC(=O)c1ccccn1)c1cc(OCCN(CC)CC)ccc1-2` gave an IC50 of 42.5 µM. `O=[N+]([O-])c1ccc(Sc2nc3ccccc3o2)c([N+](=O)[O-])c1` was tested, and the IC50 was 117 µM. `Oc1ccc(/C=N/Nc2ncc(Br)cn2)c(O)c1` was tested, and the IC50 was 111 µM. For `O=C(Nc1nnc(-c2cccs2)o1)c1cccc(Oc2ccccc2)c1`, the IC50 was 78.6 µM. Work on `COc1cccc(/C=N\NC(=O)Cn2nnc3ccccc32)c1O` yielded an IC50 of 84.3 µM. `Cc1ccc(/C=C/C(=O)c2ccccc(=O)c2O)cc1C` gave an IC50 of 42.6 µM. In the case of `CCCCCOc1ccc(Br)cc1CSC(=N)N`, the IC50 is reported as 58.1 µM. `Cc1cc(C(C)(C)CC(C)(C)C)ccc1OCCOCC[N+](C)(C)Cc1ccccc1` showed an IC50 of 31.8 µM. With `COc1ccc(Nc2cc(C)c3c(O)cccc3n2)cc1` the IC50 was 68.6 µM. Work on `O=C1C=C(N2CCOCC2)c2ccccc2C1=O` yielded an IC50 of 51.2 µM. Compound `CC1CCc2cc(F)cc3c(=O)c(C(=O)O)cn1c23` (stereo not given) has an IC50 of 5.94 µM. In the case of `COc1ccccc1CNCC(O)Cn1c2ccccc2c2ccccc21` (stereo not given), the IC50 is reported as 104 µM. With `Oc1cccc2ccc(Nc3ccccn3)nc12` the IC50 was 18.9 µM. `O=[N+]([O-])c1cc(O)c2ncccc2c1` showed an IC50 of 27.9 µM. With `Cc1ccccc1Nc1cc(C)c2c(O)cccc2n1` the IC50 was 61.9 µM. Compound `Oc1ccc(CN2CCN(Cc3ccccc3)CC2)c2cccnc12` has an IC50 of 61.5 µM. Compound `Oc1cccc(Nc2c3ccccc3nc3ccccc23)c1` has an IC50 of 147 µM. For `NC1CCN(c2nc3c(cc2F)c(=O)c(C(=O)O)cn3-c2ccc(F)cc2F)C1` (stereo not given), the IC50 was 0.49 µM. With `Oc1ccc(Cl)cc1Cc1cc(Cl)ccc1O` the IC50 was 36.6 µM. `Cc1cc(C)n(-c2nc(NCCN(C)C)c3c4c(sc3n2)CCCC4)n1` was tested, and the IC50 was 103 µM. With `C/C(=C\C(=O)OCCCCCCCCC(=O)O)C[C@@H]1OC[C@H](C[C@@H]2O[C@H]2[C@@H](C)[C@H](C)O)[C@@H](O)[C@H]1O` the IC50 was 10.5 µM. `C[C@H]1O[C@@H](n2cc(F)c(=O)[nH]c2=O)[C@H](O)[C@@H]1O` gave an IC50 of 22.8 µM. Work on `C=CC1=C(C(=O)O)N2C(=O)[C@@H](NC(=O)/C(=N/OCC(=O)O)c3csc(N)n3)[C@H]2SC1` yielded an IC50 of 22.4 µM. Work on `c1cnc2c(c1)ccc1cccnc12` yielded an IC50 of 39.5 µM. Work on `Cc1nc2c(=O)n(C)c(=O)nc-2n(C)n1` yielded an IC50 of 1.15 µM. `COc1cc([N+](=O)[O-])cc(/C=N\NC(=O)C2COc3ccccc3O2)c1O` (stereo not given) gave an IC50 of 129 µM. For `O=Cc1ccc(O)c2ncccc12`, the IC50 was 10.2 µM. In the case of `O=C1c2ccccc2C(=O)c2[nH]c(=O)[nH]c21`, the IC50 is reported as 14.5 µM. `Nc1nonc1C(=O)N/N=C/c1cc(Br)ccc1O` showed an IC50 of 17.1 µM. With `Cc1sc2ncnc(N/N=C/c3ccccc3O)c2c1C` the IC50 was 82.2 µM. Compound `Oc1cc(Cl)ccc1Oc1ccc(Cl)cc1Cl` has an IC50 of 0.82 µM. `CC(C)(C)CC(C)(C)c1ccc(OCCOCC[N+](C)(C)Cc2ccccc2)cc1` was tested, and the IC50 was 35.9 µM. `Oc1c(I)cc(Cl)c2cccnc12` was tested, and the IC50 was 17.9 µM. For `N=c1n(Cc2ccccc2)c2ccccc2n1CC(O)COc1ccc(Cl)cc1Cl` (stereo not given), the IC50 was 35.1 µM. `Cc1cc(C)c(NC(=O)c2cn3c4c(c(N5CCN(C)CC5)c(F)cc4c2=O)OCC3C)c(C)c1` (stereo not given) gave an IC50 of 20.3 µM. Compound `CO[C@@]1(NC(=O)C2SC(=C(C(N)=O)C(=O)O)S2)C(=O)N2C(C(=O)O)=C(CSc3nnnn3C)CS[C@@H]21` (stereo not given in full) has an IC50 of 16 µM. `Cc1ccc(S(=O)(=O)/N=C2/C=C(Sc3ncn[nH]3)C(=O)c3ccccc32)cc1` showed an IC50 of 53.8 µM. Work on `Cc1conc1NC(c1cccs1)c1ccc2cccnc2c1O` (stereo not given) yielded an IC50 of 60.9 µM. In the case of `CC[C@H]1OC(=O)[C@H](C)[C@@H](O[C@H]2C[C@@](C)(OC)[C@@H](O)[C@H](C)O2)[C@H](C)[C@@H](O[C@@H]2O[C@H](C)C[C@H](N(C)C)[C@H]2O)[C@](C)(O)C[C@@H](C)[C@@H]2N[C@@H](COCCOC)O[C@H]([C@H]2C)[C@]1(C)O`, the IC50 is reported as 33.1 µM. `C=C1c2cccc(O)c2C(O)=C2C(=O)[C@]3(O)C(O)=C(C(N)=O)C(=O)[C@@H](N(C)C)[C@@H]3[C@@H](O)[C@H]12` showed an IC50 of 1.41 µM. Compound `CCCCCCCCCCCCCCCC[N+](C)(C)CC` has an IC50 of 24.4 µM. Work on `CO[C@H]1C=CO[C@@]2(C)Oc3c(C)c(O)c4c(O)c(c(C=NN5CCN(C)CC5)c(O)c4c3C2=O)NC(=O)C(C)=CC=C[C@H](C)[C@H](O)[C@@H](C)[C@@H](O)[C@@H](C)[C@H](OC(C)=O)[C@@H]1C` yielded an IC50 of 6.31 µM. For `CCn1cc(C(=O)O)c(=O)c2cc(F)c(N3CCN(C(=S)Nc4ccccc4OC)CC3)cc21`, the IC50 was 10.9 µM. `CCN1/C(=C/C=C/C=C/c2sc3ccccc3[n+]2CC)Sc2ccccc21` was tested, and the IC50 was 18.6 µM. For `CCN(CC)c1ccc(/C=N/Nc2nc3ccccc3[nH]2)c(O)c1`, the IC50 was 134 µM. Compound `O=C(N/N=C/c1ccc([N+](=O)[O-])s1)C(O)c1ccccc1` (stereo not given) has an IC50 of 83.6 µM. Work on `O=C(N/N=C\C=C\c1ccc([N+](=O)[O-])o1)c1cccs1` yielded an IC50 of 23.5 µM.

Reference: PubChem BioAssay AID1863 (Southern Research Specialized Biocontainment Screening …, 2009)
